Measurements taken from the NIST ThermoML archive (doi:10.1021/acs.jced.6b00542).

Test: xn = mol fraction of the nth substance listed
Settings: for speed of sound: 100 kPa, Frequency=3 MHz, Sing-around technique in a fixed-path interferometer; for speed of sound / viscosity / mass density: Liquid; for viscosity / mass density: 102 kPa; for viscosity: Concentric cylinders viscometry; for mass density: Vibrating tube method; for surface tension liquid-gas: 294.5 K, Pendant drop shape

CCCCc1ccccc1 [butylbenzene] + CCCCCCCCCCCCCCCC
Settings | mass density [kg/m3] | speed of sound [m/s] | viscosity [mPa·s]
293.15 K, x1 = 0.1586 | 780.89 | 1353.2 | 2.92
293.15 K, x1 = 0.2971 | 788.51 | 1350.1 | 2.5
293.15 K, x1 = 0.4067 | 795.49 | 1347.8 | 2.21
293.15 K, x1 = 0.5293 | 804.56 | 1346 | 1.91
293.15 K, x1 = 0.6278 | 813.07 | 1345 | 1.69
293.15 K, x1 = 0.7158 | 821.75 | 1345.1 | 1.52
293.15 K, x1 = 0.7981 | 831.1 | 1346.3 | 1.36
293.15 K, x1 = 0.8709 | 840.48 | 1347.8 | 1.23
293.15 K, x1 = 0.938 | 850.32 | 1350.4 | 1.12
293.15 K, x1 = 1 | 860.51 | 1353.7 | 1.05
303.15 K, x1 = 0.1586 | 773.89 | 1316.1 | 2.35
303.15 K, x1 = 0.2971 | 781.43 | 1313 | 2.05
303.15 K, x1 = 0.4067 | 788.33 | 1310.7 | 1.83
303.15 K, x1 = 0.5293 | 797.29 | 1308.8 | 1.6
303.15 K, x1 = 0.6278 | 805.7 | 1307.7 | 1.43
303.15 K, x1 = 0.7158 | 814.27 | 1307.6 | 1.29
303.15 K, x1 = 0.7981 | 823.49 | 1308.5 | 1.17
303.15 K, x1 = 0.8709 | 832.73 | 1309.7 | 1.06
303.15 K, x1 = 0.938 | 842.44 | 1312 | 0.976
303.15 K, x1 = 1 | 852.49 | 1314.9 | 0.91
313.15 K, x1 = 0.1586 | 766.88 | 1279.5 | 1.94
313.15 K, x1 = 0.2971 | 774.34 | 1276.4 | 1.71
313.15 K, x1 = 0.4067 | 781.16 | 1274.1 | 1.54
313.15 K, x1 = 0.5293 | 790 | 1272.1 | 1.36
313.15 K, x1 = 0.6278 | 798.3 | 1270.8 | 1.23
313.15 K, x1 = 0.7158 | 806.75 | 1270.5 | 1.11
313.15 K, x1 = 0.7981 | 815.84 | 1271.1 | 1.01
313.15 K, x1 = 0.8709 | 824.96 | 1272.1 | 0.932
313.15 K, x1 = 0.938 | 834.53 | 1274 | 0.859
313.15 K, x1 = 1 | 844.43 | 1276.6 | 0.801
323.15 K, x1 = 0.1586 | 759.88 | 1243.6 | 1.62
323.15 K, x1 = 0.2971 | 767.24 | 1240.4 | 1.44
323.15 K, x1 = 0.4067 | 773.97 | 1238 | 1.31
323.15 K, x1 = 0.5293 | 782.69 | 1235.9 | 1.17
323.15 K, x1 = 0.6278 | 790.88 | 1234.4 | 1.06
323.15 K, x1 = 0.7158 | 799.21 | 1233.9 | 0.972
323.15 K, x1 = 0.7981 | 808.17 | 1234.3 | 0.891
323.15 K, x1 = 0.8709 | 817.16 | 1235 | 0.822
323.15 K, x1 = 0.938 | 826.58 | 1236.6 | 0.761
323.15 K, x1 = 1 | 836.34 | 1238.7 | 0.713
333.15 K, x1 = 0.1586 | 752.86 | 1208.2 | 1.37
333.15 K, x1 = 0.2971 | 760.13 | 1204.9 | 1.24
333.15 K, x1 = 0.4067 | 766.76 | 1202.5 | 1.13
333.15 K, x1 = 0.5293 | 775.36 | 1200.2 | 1.02
333.15 K, x1 = 0.6278 | 783.43 | 1198.6 | 0.929
333.15 K, x1 = 0.7158 | 791.64 | 1197.8 | 0.856
333.15 K, x1 = 0.7981 | 800.47 | 1197.9 | 0.787
333.15 K, x1 = 0.8709 | 809.32 | 1198.3 | 0.731
333.15 K, x1 = 0.938 | 818.61 | 1199.6 | 0.68
333.15 K, x1 = 1 | 828.21 | 1201.4 | 0.636
343.15 K, x1 = 0.1586 | 745.8 | – | 1.18
343.15 K, x1 = 0.2971 | 752.9 | – | 1.07
343.15 K, x1 = 0.4067 | 759.5 | – | 0.986
343.15 K, x1 = 0.5293 | 767.9 | – | 0.893
343.15 K, x1 = 0.6278 | 775.9 | – | 0.821
343.15 K, x1 = 0.7158 | 783.9 | – | 0.757
343.15 K, x1 = 0.7981 | 792.7 | – | 0.702
343.15 K, x1 = 0.8709 | 801.4 | – | 0.653
343.15 K, x1 = 0.938 | 810.6 | – | 0.61
343.15 K, x1 = 1 | 819.9 | – | 0.571
353.15 K, x1 = 0.1586 | 738.8 | – | 1.03
353.15 K, x1 = 0.2971 | 745.8 | – | 0.939
353.15 K, x1 = 0.4067 | 752.3 | – | 0.868
353.15 K, x1 = 0.5293 | 760.5 | – | 0.792
353.15 K, x1 = 0.6278 | 768.4 | – | 0.731
353.15 K, x1 = 0.7158 | 776.2 | – | 0.677
353.15 K, x1 = 0.7981 | 784.9 | – | 0.63
353.15 K, x1 = 0.8709 | 793.5 | – | 0.588
353.15 K, x1 = 0.938 | 802.5 | – | 0.55
353.15 K, x1 = 1 | 811.7 | – | 0.516
363.15 K, x1 = 0.1586 | 731.6 | – | 0.91
363.15 K, x1 = 0.2971 | 738.6 | – | 0.833
363.15 K, x1 = 0.4067 | 744.9 | – | 0.773
363.15 K, x1 = 0.5293 | 753.1 | – | 0.708
363.15 K, x1 = 0.6278 | 760.8 | – | 0.656
363.15 K, x1 = 0.7158 | 768.5 | – | 0.61
363.15 K, x1 = 0.7981 | 777.1 | – | 0.569
363.15 K, x1 = 0.8709 | 785.4 | – | 0.532
363.15 K, x1 = 0.938 | 794.3 | – | 0.5
363.15 K, x1 = 1 | 803.4 | – | 0.469
373.15 K, x1 = 0.1586 | 724.5 | – | 0.811
373.15 K, x1 = 0.2971 | 731.3 | – | 0.746
373.15 K, x1 = 0.4067 | 737.5 | – | 0.695
373.15 K, x1 = 0.5293 | 745.5 | – | 0.639
373.15 K, x1 = 0.6278 | 753.1 | – | 0.594
373.15 K, x1 = 0.7158 | 760.8 | – | 0.553
373.15 K, x1 = 0.7981 | 769.1 | – | 0.517
373.15 K, x1 = 0.8709 | 777.5 | – | 0.484
373.15 K, x1 = 0.938 | 786.1 | – | 0.456
373.15 K, x1 = 1 | 795 | – | 0.43

Settings | surface tension liquid-gas [mN/m]
x1 = 0.1586 | 27.5
x1 = 0.2971 | 27.3
x1 = 0.4067 | 27.6
x1 = 0.5293 | 27.8
x1 = 0.6278 | 27.9
x1 = 0.7158 | 28
x1 = 0.7981 | 28.2
x1 = 0.8709 | 28.4
x1 = 0.938 | 28.7
